Literature values, collected in US20070099889A1, “Use of pseudan and pseudan inclusion bodies” (priority 2005, published 2007).

Conditions: isolated from filtrates of 4 to 6 week old culture of P. aeruginosa

Compound: CCCCCCCCCc1cc(O)c2ccccc2n1 [4-hydroxy-2-nonylquinoline]
- antibiotic activity: exhibit antibiotic activity
